Assay results taken from patent publication US20240024324A1, “KINASE INHIBITOR COMBINATIONS FOR CANCER TREATMENT” (Merck Patent GmbH, priority 2020, published 2024).

Columns and labels:
GSC11 [1] = test: GSC lines: sensitivity in vitro (IC50); type: cell-based
Description: (§1) FIG. 1: In vitro analyses in GSC lines. (A) Western blot analysis of protein expression; (B) IC50 of M2698; (C) IC50 of pimasertib; and (D) apoptotic GSC11, GSC7-2, and GSC17 cells after treatment with M2698, pimasertib, or M2698+pimasertib combination. Single agents were tested at their IC50; half the IC50 of each compound was used for the combination.
(§2) All GSC lines expressed Akt. Relatively high pAkt expression in GSC17, GSC7-2, GSC231, GSC11, GSC20, GSC6-27, and GSC8-11 lines compared with GSC272 and GSC267 (FIG. 1A).

GSC17 [2] = test: GSC lines: sensitivity in vitro (IC50); type: cell-based
Description: as §1, §2

GSC20 [3] = test: GSC lines: sensitivity in vitro (IC50); type: cell-based
Description: as §1, §2

GSC231 [4] = test: GSC lines: sensitivity in vitro (IC50); type: cell-based; details: GSC231 line in vitro
Description: as §1, §2

GSC6-27 [5] = test: GSC lines: sensitivity in vitro (IC50); type: cell-based; details: GSC6-27 line in vitro
Description: as §1, §2

GSC7-2 [6] = test: GSC lines: sensitivity in vitro (IC50); type: cell-based
Description: as §1, §2

GSC272 [7] = test: GSC lines: sensitivity in vitro (IC50); type: cell-based; details: GSC272 line in vitro
Description: FIG. 1: In vitro analyses in GSC lines. (A) Western blot analysis of protein expression; (B) IC50 of […]; (C) IC50 of pimasertib; and (D) apoptotic GSC11, GSC7-2, and GSC17 cells after treatment with […], pimasertib, or […]+pimasertib combination. Single agents were tested at their IC50; half the IC50 of each compound was used for the combination. In vitro IC50 data were used to select GSC lines for in vivo studies; […] All GSC lines expressed Akt. Relatively high pAkt expression in GSC17, GSC7-2, GSC231, GSC11, GSC20, GSC6-27, and GSC8-11 lines compared with GSC272 and GSC267 (FIG. 1A). […] (FIG. 1B).

GSC11 [8] = test: Induction of apoptosis in GSC lines in vitro; type: cell-based
Description: (§3) FIG. 1: In vitro analyses in GSC lines. (A) Western blot analysis of protein expression; (B) IC50 of M2698; (C) IC50 of pimasertib; and (D) apoptotic GSC11, GSC7-2, and GSC17 cells after treatment with M2698, pimasertib, or M2698+pimasertib combination. […]
(§4) Induction of apoptosis by M2698, pimasertib, and the combination was measured in three of five GSC lines that were sensitive to M2698 in vitro.

GSC17 [9] = test: Induction of apoptosis in GSC lines in vitro; type: cell-based
Description: as §3, §4

GSC7-2 [10] = test: Induction of apoptosis in GSC lines in vitro; type: cell-based
Description: as §3, §4

GSC11 [11] = test: Orthotopic GSC xenograft model; type: in vivo, mice
Description: (§5) The in vivo effects of M2698 and pimasertib, alone and in combination, were assessed in the GSC models after orthotopic implantation into mice. Treatment duration and time of euthanasia post-implantation was 5-10 weeks. Endpoints were expression of PD markers pS6 and pERK, proliferation marker Ki67, apoptosis as measured by TUNEL, tumor volume and survival.

GSC17 [12] = test: Orthotopic GSC xenograft model; type: in vivo, mice
Description: as §5

GSC20 [13] = test: Orthotopic GSC xenograft model; type: in vivo, mice
Description: as §5

GSC231 [14] = test: Orthotopic GSC xenograft model; type: in vivo, mice
Description: as §5

GSC272 [15] = test: Orthotopic GSC xenograft model; type: in vivo, mice
Description: as §5

GSC6-27 [16] = test: Orthotopic GSC xenograft model; type: in vivo, mice
Description: as §5

GSC7-2 [17] = test: Orthotopic GSC xenograft model; type: in vivo, mice
Description: as §5

[18] = tested on: Non-Small Lung Cancer (NSCLC) Brain Metastases PDX; test: PDX models of NSCLC brain metastases; type: in vivo
[19] = tested on: Her2+/HR− Breast Cancer PDX; test: PDX models of Her2+/HR- breast cancer; type: in vivo
[20] = tested on: human cholangiocarcinoma cancer PDX; test: PDX models of cholangiocarcinoma; type: in vivo, mice; details: 20 mg/kg each agent QD PO
Description: The objective of this experiment was to evaluate the antitumor activity of M2698 alone and in combination with Pimasertib in a panel of 13 Patient-Derived Xenograft models representing human cholangiocarcinoma cancer derived from Chinese patients in immune-deficient mice.
Vehicle: 0.5% Methocel/0.25% Tween20 in Milli-Q Water. Tumors from three untreated mice were collected as satellite samples when reached a tumor volume between 300-500 mm3.

Colorectal Cancer PDX = test: 75 PDX models of colorectal cancer; type: in vivo; details: CRC PDX; M2698 25 mg/kg po qd, Pimasertib 20 mg/kg po qd, Cetuximab 20 mg/kg ip q2w
Description: Of the 75 models, 25 were wild type, 25 KRas mutant, and 25 BRaf mutant.

[21] = in vivo; cited from earlier work

O=C(NCC(O)CO)c1ccncc1Nc1ccc(I)cc1F (stereo not drawn) [pimasertib, N-(2,3-dihydroxy-propyl)-3-(2-fluoro-4-iodo-phenylamino)-isonicotinamide, reference compound]
sensitivity in vitro (GSC11 [1]; GSC11 line): most sensitive
IC50 (GSC11 [1]; GSC11 line in vitro): < 2 µM
sensitivity in vitro (GSC17 [2]; GSC17 line): moderately sensitive
IC50 (GSC17 [2]; GSC17 line in vitro): < 2 µM
sensitivity in vitro (GSC20 [3]; GSC20 line): insensitivity
IC50 (GSC20 [3]; GSC20 line in vitro): > 2 µM
IC50 (GSC231 [4]): < 2 µM
IC50 (GSC6-27 [5]): > 2 µM
sensitivity in vitro (GSC7-2 [6]; GSC7-2 line): not sensitive
IC50 (GSC7-2 [6]; GSC7-2 line in vitro): > 2 µM
IC50 (GSC272 [7]): > 2 µM
apoptotic percentage (GSC11 [8]; GSC11, monotherapy at 2×IC50): 62%
apoptotic percentage (GSC11 [8]; GSC11, monotherapy at the IC50): 56%
apoptotic percentage (GSC17 [9]; GSC17, monotherapy at 2×IC50): 12%
apoptotic percentage (GSC17 [9]; GSC17, monotherapy at the IC50): 11%
apoptotic percentage (GSC7-2 [10]; GSC7-2, monotherapy at 2×IC50): 17%
apoptotic percentage (GSC7-2 [10]; GSC7-2, monotherapy at the IC50): 13%
pERK expression in orthotopic tumor (GSC11 [11]; GSC11, PD marker): significantly reduced pERK
median survival (GSC11 [11]; GSC11 orthotopic, vs vehicle): no significant effects on survival
pERK expression in orthotopic tumor (GSC17 [12]; GSC17, PD marker): significantly reduced pERK
median survival (GSC17 [12]; GSC17 orthotopic, vs vehicle): no significant effects on survival
tumor volume / tumor growth (GSC17 [12]; GSC17 orthotopic, vs vehicle): not affected
proliferation (Ki67 by immunohistochemistry) (GSC17 [12]; GSC17 tumor sections, compared to vehicle): significantly reduced proliferation
pERK expression in orthotopic tumor (GSC20 [13]; GSC20, PD marker): significant effects of pimasertib treatment on pERK protein were not seen
median survival (GSC20 [13]; GSC20 orthotopic, vs vehicle): no significant effects on survival
tumor volume / tumor growth (GSC20 [13]; GSC20 orthotopic, vs vehicle): had not responded
pERK expression in orthotopic tumor (GSC231 [14]; GSC231, PD marker): significantly reduced pERK
pS6 expression in orthotopic tumor (GSC231 [14]; GSC231, PD marker): significantly reduced pS6
cross-pathway reduction of pS6, trend over time (GSC231 [14]; GSC231, from 7.5-10 weeks): diminished
median survival (GSC231 [14]; GSC231 orthotopic, vs vehicle): no significant effects on survival
tumor volume / tumor growth (GSC231 [14]; GSC231 orthotopic, vs vehicle): trend towards a significant response
pERK expression in orthotopic tumor (GSC272 [15]; GSC272, PD marker): significantly reduced pERK
pS6 expression in orthotopic tumor (GSC272 [15]; GSC272, PD marker): significantly reduced pS6
cross-pathway reduction of pS6, trend over time (GSC272 [15]; GSC272, from 7.5-10 weeks): diminished
median survival (GSC272 [15]; GSC272 orthotopic, vs vehicle): no significant effects on survival
tumor volume / tumor growth (GSC272 [15]; GSC272 orthotopic, vs vehicle): significant tumor growth inhibition
pERK expression in orthotopic tumor (GSC6-27 [16]; GSC6-27, PD marker): significantly reduced pERK
median survival (GSC6-27 [16]; GSC6-27 orthotopic, vs vehicle): no significant effects on survival
tumor volume / tumor growth (GSC6-27 [16]; GSC6-27 orthotopic, vs vehicle): significant tumor growth inhibition
pERK expression in orthotopic tumor (GSC7-2 [17]; GSC7-2, PD marker): significantly reduced pERK
median survival (GSC7-2 [17]; GSC7-2 orthotopic, vs vehicle): no significant effects on survival
tumor volume / tumor growth (GSC7-2 [17]; GSC7-2 orthotopic, vs vehicle): significant tumor growth inhibition
number of apoptotic cells/field (GSC7-2 [17]; GSC7-2 xenografts, after 10 weeks): 65.00±60.80 cells/field
apoptosis in xenografts vs control (GSC7-2 [17]; GSC7-2 xenografts, at 7.5 weeks): Neither M2698, pimasertib, nor combination treatment significantly affected apoptosis
tumor control rate (TCR) [18]: 16%
tumor volume over the duration of the experiment [19]: stasis of the tumor volume
tumor stasis, number of tumor samples [20]: 1/12
tumor stasis, share of tumor samples [20]: 8%
tumor control rate (TCR) (Colorectal Cancer PDX): 32%
tumor control rate (TCR), models controlled/models (Colorectal Cancer PDX): 24/74
blood-brain barrier penetration [21]: brain-penetrant
